Data published in PubChem BioAssay (NCI).
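Cultured in 96-well plates, cells were exposed to test compound for 48 hours across five concentrations. Definition used: TGI = concentration required for complete inhibition of growth.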

How the values were obtained:
Experiment in all cases: inhibition of tumour cell growth, NCI panel, 48 h
SK-MEL-2 melanoma = test system: SK-MEL-2 melanoma
HCT-15 colon = test system: HCT-15 colon
HCC-2998 colon = test system: HCC-2998 colon
NCI-H226 lung = test system: NCI-H226 lung
SF-268 CNS = test system: SF-268 CNS
A498 renal = test system: A498 renal
NCI/ADR-RES ovarian = test system: NCI/ADR-RES ovarian
NCI-H23 lung = test system: NCI-H23 lung
KM12 colon = test system: KM12 colon
SK-OV-3 ovarian = test system: SK-OV-3 ovarian
COLO 205 colon = test system: COLO 205 colon
T-47D breast = test system: T-47D breast
HT29 colon = test system: HT29 colon
BT-549 breast = test system: BT-549 breast
SNB-19 CNS = test system: SNB-19 CNS
OVCAR-5 ovarian = test system: OVCAR-5 ovarian
M14 melanoma = test system: M14 melanoma
SK-MEL-5 melanoma = test system: SK-MEL-5 melanoma
SR leukemia = test system: SR leukemia
U251 CNS = test system: U251 CNS
UACC-62 melanoma = test system: UACC-62 melanoma
SF-539 CNS = test system: SF-539 CNS
MDA-MB-231 breast = test system: MDA-MB-231 breast
HCT-116 colon = test system: HCT-116 colon
MOLT-4 leukemia = test system: MOLT-4 leukemia
SW-620 colon = test system: SW-620 colon
786-0 renal = test system: 786-0 renal
TK-10 renal = test system: TK-10 renal
CCRF-CEM leukemia = test system: CCRF-CEM leukemia
MDA-MB-435 = test system: MDA-MB-435
SF-295 CNS = test system: SF-295 CNS
OVCAR-8 ovarian = test system: OVCAR-8 ovarian
ACHN renal = test system: ACHN renal
OVCAR-3 ovarian = test system: OVCAR-3 ovarian
SN12C renal = test system: SN12C renal
EKVX NSCLC = test system: EKVX NSCLC
HOP-62 NSCLC = test system: HOP-62 NSCLC
PC-3 prostate = test system: PC-3 prostate
CAKI-1 renal = test system: CAKI-1 renal
UACC-257 melanoma = test system: UACC-257 melanoma
LOX IMVI melanoma = test system: LOX IMVI melanoma
DU-145 prostate = test system: DU-145 prostate
MALME-3M melanoma = test system: MALME-3M melanoma
A549 NSCLC = test system: A549 NSCLC
IGROV1 ovarian = test system: IGROV1 ovarian
RPMI-8226 leukemia = test system: RPMI-8226 leukemia
UO-31 renal = test system: UO-31 renal
NCI-H522 lung = test system: NCI-H522 lung
HL-60(TB) leukemia = test system: HL-60(TB) leukemia
MCF7 breast = test system: MCF7 breast
OVCAR-4 ovarian = test system: OVCAR-4 ovarian
RXF 393 renal = test system: RXF 393 renal
HOP-92 NSCLC = test system: HOP-92 NSCLC
SK-MEL-28 melanoma = test system: SK-MEL-28 melanoma
SNB-75 CNS = test system: SNB-75 CNS
HS 578T breast = test system: HS 578T breast
K-562 leukemia = test system: K-562 leukemia

`O=C(NNC(=S)NC1CCCCC1)c1csc(NC(=S)NC2CCCCC2)n1` was tested, and the TGI (SK-MEL-2 melanoma) was 33.7 µM, the TGI (HCT-15 colon) was 14.5 µM and the TGI (HCC-2998 colon) was 14.5 µM. The TGI (NCI-H226 lung) was over 100000 nM, the TGI (SF-268 CNS) was 26.3 µM and the TGI (A498 renal) was 36.3 µM. The TGI (NCI/ADR-RES ovarian) was 13.3 µM, the TGI (NCI-H23 lung) was 45.2 µM and the TGI (KM12 colon) was 87.6 µM. The TGI (SK-OV-3 ovarian) was 28.6 µM, the TGI (COLO 205 colon) was 14.1 µM and the TGI (T-47D breast) was 74.6 µM. The TGI (HT29 colon) was over 100 µM, the TGI (BT-549 breast) was 21.1 µM and the TGI (SNB-19 CNS) was 44.8 µM. The TGI (OVCAR-5 ovarian) was 40.1 µM, the TGI (M14 melanoma) was 16.1 µM and the TGI (SK-MEL-5 melanoma) was 8.79 µM. The TGI (SR leukemia) was over 100 µM, the TGI (U251 CNS) was 20.2 µM and the TGI (UACC-62 melanoma) was 22.6 µM. The TGI (SF-539 CNS) was 15.6 µM, the TGI (MDA-MB-231 breast) was 45.1 µM and the TGI (HCT-116 colon) was 16.5 µM. It also gave a TGI (MOLT-4 leukemia) of 25.5 µM, a TGI (SW-620 colon) of 19.5 µM and a TGI (786-0 renal) of 19.9 µM. For the same compound, the TGI (TK-10 renal) was over 100 µM, the TGI (CCRF-CEM leukemia) was over 100 µM and the TGI (MDA-MB-435) was 26.6 µM. For the same compound, the TGI (SF-295 CNS) was 19.7 µM, the TGI (OVCAR-8 ovarian) was 15 µM and the TGI (ACHN renal) was 15.3 µM. The TGI (OVCAR-3 ovarian) was 16.9 µM, the TGI (SN12C renal) was 25.9 µM and the TGI (EKVX NSCLC) was over 100 µM. For the same compound, the TGI (HOP-62 NSCLC) was 35.2 µM, the TGI (PC-3 prostate) was 24.9 µM and the TGI (CAKI-1 renal) was 24.2 µM. It also gave a TGI (UACC-257 melanoma) of 11.8 µM, a TGI (LOX IMVI melanoma) of 18.9 µM and a TGI (DU-145 prostate) of over 100 µM. It also gave a TGI (MALME-3M melanoma) of 26 µM, a TGI (A549 NSCLC) of 23.3 µM and a TGI (IGROV1 ovarian) of 26.6 µM. The TGI (RPMI-8226 leukemia) was 46.7 µM, the TGI (UO-31 renal) was 11.2 µM and the TGI (NCI-H522 lung) was 28.2 µM. The TGI (HL-60(TB) leukemia) was over 100 µM and the TGI (MCF7 breast) was over 100 µM.
For `CCCC(=O)Nc1cc(/C=C/C(=O)N2CC(CCl)c3c2cc(O)c2[nH]cc(C)c32)n(C)c1` (stereo not drawn), the TGI (SK-MEL-2 melanoma) was under 2.5e-05 µM, the TGI (HCT-15 colon) was over 0.196 µM and the TGI (OVCAR-4 ovarian) was 0.038 µM. It also gave a TGI (NCI-H226 lung) of 0.04 nM, a TGI (SF-268 CNS) of under 2.5e-05 µM and a TGI (RXF 393 renal) of under 25 pM. The TGI (NCI/ADR-RES ovarian) was 0.00372 µM, the TGI (NCI-H23 lung) was under 2.5e-05 µM and the TGI (KM12 colon) was over 0.25 µM. For the same compound, the TGI (HOP-92 NSCLC) was under 25 pM, the TGI (SK-OV-3 ovarian) was 0.00563 µM and the TGI (T-47D breast) was 0.00884 µM. The TGI (HT29 colon) was 0.0285 µM, the TGI (BT-549 breast) was 0.000504 µM and the TGI (SNB-19 CNS) was 0.00608 µM. For the same compound, the TGI (OVCAR-5 ovarian) was 0.0286 µM, the TGI (SK-MEL-5 melanoma) was under 2.5e-05 µM and the TGI (SR leukemia) was over 0.14 µM. The TGI (SK-MEL-28 melanoma) was over 0.25 µM, the TGI (U251 CNS) was 0.0449 µM and the TGI (UACC-62 melanoma) was under 2.5e-05 µM. It also gave a TGI (SF-539 CNS) of under 2.5e-05 µM, a TGI (MDA-MB-231 breast) of 0.0344 µM and a TGI (MOLT-4 leukemia) of 0.0121 µM. For the same compound, the TGI (SW-620 colon) was over 0.25 µM, the TGI (TK-10 renal) was under 2.5e-05 µM and the TGI (CCRF-CEM leukemia) was 0.000155 µM. It also gave a TGI (MDA-MB-435) of under 2.5e-05 µM, a TGI (SF-295 CNS) of 2.98e-05 µM and a TGI (OVCAR-8 ovarian) of 0.000532 µM. For the same compound, the TGI (ACHN renal) was under 2.5e-05 µM, the TGI (SNB-75 CNS) was under 25 pM and the TGI (SN12C renal) was 0.000528 µM. For the same compound, the TGI (EKVX NSCLC) was 0.00293 µM, the TGI (HOP-62 NSCLC) was under 2.5e-05 µM and the TGI (CAKI-1 renal) was under 2.5e-05 µM. The TGI (LOX IMVI melanoma) was 0.0163 µM, the TGI (DU-145 prostate) was 0.000817 µM and the TGI (IGROV1 ovarian) was over 0.25 µM. The TGI (RPMI-8226 leukemia) was 0.00154 µM, the TGI (HS 578T breast) was 63.5 pM and the TGI (K-562 leukemia) was over 0.25 µM. The TGI (NCI-H522 lung) was under 2.5e-05 µM.
